{"source": "ChEMBL document CHEMBL1127278", "about": "“N-chloromethyl quinuclidinium derivatives: A new class of irreversible ligands for 5-HT3 receptors” (Bioorg Med Chem Lett, 1994)"}
{"target": "T1, Serotonin 3 (5-HT3) receptor (Rattus norvegicus, UniProt P35563+Q9JJ16)", "T1 sequence (P35563 whole entry)": "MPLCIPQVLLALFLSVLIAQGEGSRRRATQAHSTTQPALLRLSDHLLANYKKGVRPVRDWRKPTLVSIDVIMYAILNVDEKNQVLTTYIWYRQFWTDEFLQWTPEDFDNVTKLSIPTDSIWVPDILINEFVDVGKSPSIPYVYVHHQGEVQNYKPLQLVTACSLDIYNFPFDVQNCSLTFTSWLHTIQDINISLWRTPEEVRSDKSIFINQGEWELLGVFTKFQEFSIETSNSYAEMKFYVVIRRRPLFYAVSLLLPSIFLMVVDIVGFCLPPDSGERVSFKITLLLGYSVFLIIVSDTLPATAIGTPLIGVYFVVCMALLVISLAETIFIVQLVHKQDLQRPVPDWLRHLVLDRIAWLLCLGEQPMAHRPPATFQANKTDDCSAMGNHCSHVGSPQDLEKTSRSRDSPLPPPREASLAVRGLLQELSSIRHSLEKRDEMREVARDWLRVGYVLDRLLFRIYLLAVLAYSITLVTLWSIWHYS", "T1 sequence (Q9JJ16 whole entry)": "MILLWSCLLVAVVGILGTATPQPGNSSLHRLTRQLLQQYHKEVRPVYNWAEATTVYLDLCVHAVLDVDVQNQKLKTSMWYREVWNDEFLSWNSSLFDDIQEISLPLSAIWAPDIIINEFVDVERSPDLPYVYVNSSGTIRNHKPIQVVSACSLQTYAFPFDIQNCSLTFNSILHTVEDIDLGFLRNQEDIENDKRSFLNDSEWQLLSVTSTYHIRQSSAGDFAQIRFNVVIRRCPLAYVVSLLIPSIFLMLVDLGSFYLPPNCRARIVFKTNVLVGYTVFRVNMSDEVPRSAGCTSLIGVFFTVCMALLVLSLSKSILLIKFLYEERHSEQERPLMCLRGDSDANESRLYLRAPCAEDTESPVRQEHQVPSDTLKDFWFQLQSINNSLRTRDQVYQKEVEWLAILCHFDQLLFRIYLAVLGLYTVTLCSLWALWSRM", "assay": "Binding affinity to 5-hydroxytryptamine 3 receptor in rat entorhinal cortex using [3H]-BRL 43694 as radioligand", "units": {"Ki": "nM"}}
{"compound": "COc1cc(N)c(Cl)cc1C(=O)N[C@H]1C[N+]2(CCl)CCC1CC2", "Ki": 20.1}
{"compound": "Nc1ccc2c3c(cccc13)C(=O)N([C@@H]1C[N+]3(CCl)CCC1CC3)C2=O", "Ki": 328}
{"compound": "Nc1ccc2c3c(cccc13)C(=O)N([C@H]1C[N+]3(CCl)CCC1CC3)C2=O", "Ki": 0.35}
{"compound": "COc1cc(N)c(Cl)cc1C(=O)N[C@@H]1C[N+]2(CCl)CCC1CC2", "Ki": 14.8}
